In patent US20250099486A1, “WOUND HEALING MEDICAMENT” (The University of Sheffield, priority 2017, published 2025):

System: CAM
Assay: Ex-ovo CAM assay, implantation of E2 and 2dDR releasing PHBV scaffolds
Format: in vivo, chicken (Gallus domesticus)
Conditions: for mean vessel count: control 23.1 (±1.24)
Description: All CAM experiments were carried out according to the Home Office, UK guidelines. Fertilised chicken eggs (Gallus domesticus) were purchased from Henry Stewart & Co. (MedEggs, Norwich, UK). The eggs were carefully wiped with 20% industrial methylated spirit (IMS) solution using hand paper towels in order to remove dirt and feathers from the shell. The eggs were then incubated at 37.5° C. until embryonic development day (EDD) 3, lying horizontally in an humidified egg incubator (RCOM King SURO, P&T Poultry, Powys, Wales).
On EDD3, the upper surface of the eggs were marked with a felt pen. The eggs were held horizontally (with the marked surface on top) and cracked on the edge of a 1000 ml glass beaker and kept close to the bottom surface of petri dishes. The embryos were then transferred gently into sterile petri dishes and kept in a humidified incubator (Binder, Tuttlingen, Germany) at 38° C.
Scaffolds were cut into 5.5 mm diameter circles using a laser cutting machine (Epilog Laser Cutter, Clevedon, UK) and sterilised under UV light for 1 hour prior to implantation. Two circular scaffolds were placed on CAM at EDD8. Images of the scaffolds were acquired using a digital microscope at EDD 12 and EDD14. Microinjection of rhodamine labelled lectin into the circulation was performed, CAMs were removed and fixed in 3.7% formaldehyde solution. Embryos were then sacrificed at the end of EDD14. Angiogenesis was quantified by counting all blood vessels that converged towards the graft.
Haematoxylin and Eosin (H&E) staining was performed on cell impregnated scaffolds by modifiying a standard protocol. Briefly, fixed samples were embedded in optimal cutting temperature OCT and frozen in liquid nitrogen for 3 minutes. Sections were cut 8-10 μm thick using a cryostat (Leica Biosystems Nussloch, Germany) at −20° C. Sections were then stained with haematoxylin for 90 seconds and eosin for 5 minutes respectively. Finally H&E images were acquired under a light microscope (Motic DM-B1, Xiamen, China). The total number of blood vessels adjacent to the scaffolds were quantified by counting blood vessels in H&E sections [A. Minajeva, M. Kase, M. Saretok, A. Adamson-Raieste, S. Kase, K. Niinepuu, M Vardja, T. Asser, J. Jaal, Impact of Blood Vessel Quantity and Vascular Expression of CD133 and ICAM-1 on Survival of Glioblastoma Patients, Neurosci J. 2017 (2017) 8 pages] Briefly, all discernible blood vessels adjacent to the scaffolds were counted by two independent researchers using two independent microscopes at 10× magnification from the total of six different slides for each group and six different area of interest from each slide.

**Q.** For `O=CC[C@H](O)[C@H](O)CO` [2-deoxy-D-ribose], which mean vessel count (250 mg 2dDR loaded PHBV scaffolds) is on record?
**A.** 48.6 (±1.02)

**Q.** What about the mean vessel count (500 mg 2dDR loaded PHBV scaffolds) of the same molecule?
**A.** 37.1 (±1.37)

**Q.** And the “mean number of blood vessels adjacent to the scaffolds (H&E sections)” value (all concentrations, compared with controls and CAM only groups)?
**A.** significantly increased

**Q.** What about the “number of discernible blood vessels growing towards the scaffolds in comparison with plain PHBV scaffolds” value (all groups of releasing PHBV scaffolds) of the same molecule?
**A.** at least doubled
